ChEMBL document CHEMBL4190327, “Substituted methoxybenzyl-sulfonyl-1H-benzo[d]imidazoles evaluated as effective H+/K+-ATPase inhibitors and anti-ulcer therapeutics” (Eur J Med Chem, 2017)

Tests used:
[1] = Inhibition of hydrogen potassium ATPase in goat stomach mucosal membrane assessed as decrease in inorganic phosphate production using ATP as substrate after 10 to 15 mins by spectrophotometric analysis; format: cell membranes, Capra hircus
Capra hircus = organism: Capra hircus; experiment: Inhibition of hydrogen potassium ATPase in goat stomach mucosal membrane assessed as decrease in inorganic phosphate production using ATP as substrate after 10 to 15 mins by spectrophotometric analysis relative to omeprazole; format: cell membranes; design: concentration or dose not given beside the values
Erythrocyte [2] = experiment: Anti-inflammatory activity in human RBC assessed as membrane stabilization relative to control; format: functional; design: concentration or dose not given beside the values
Erythrocyte [3] = experiment: Anti-inflammatory activity in human RBC assessed as membrane stabilization; format: functional, cell-based

IC50 [1] | Ki [1] | inhibition (Capra hircus) | IC50 (Erythrocyte [3]) | Structure (SMILES) | Activity (Erythrocyte [2])
1460 nM | 25 to 1240 nM | 72% | 1760 nM | COc1ccc2[nH]c(S(=O)(=O)Cc3ccc(OCc4nccc(OCC(F)(F)F)c4C)c(OC)c3)nc2c1 | 71.58%
 |  |  | 942 nM | O=C(O)Cc1ccccc1Nc1c(Cl)cccc1Cl [DICLOFENAC] | 82.24%
1360 nM | 25 to 1240 nM | 73.2% | 1420 nM | COc1cc(CS(=O)(=O)c2nc3cc(OC(F)F)ccc3[nH]2)ccc1OCc1ncc(C)c(OC)c1C | 73.56%
814 nM | 25 to 1240 nM | 80.2% | 817 nM | COCCCOc1ccnc(COc2ccc(CS(=O)(=O)c3nc4cc(OC)ccc4[nH]3)cc2OC)c1C | 79.41%
355 nM | 25 to 1240 nM | 81% | 355 nM | COCCCOc1ccnc(COc2ccc(CS(=O)(=O)c3nc4ccccc4[nH]3)cc2OC)c1C | 88.45%
1660 nM | 25 to 1240 nM | 70.6% | 1880 nM | COc1cc(CS(=O)(=O)c2nc3cc(OC(F)F)ccc3[nH]2)ccc1OCc1nccc(OCC(F)(F)F)c1C | 70.28%
980 to 1010 nM |  | 82.1% |  | COc1ccc2[nH]c([S+]([O-])Cc3ncc(C)c(OC)c3C)nc2c1 (centres undefined) [OMEPRAZOLE] | 
918 nM | 25 to 1240 nM | 78.2% | 898 nM | COc1ccc2[nH]c(S(=O)(=O)Cc3ccc(OCc4nccc(OC)c4OC)c(OC)c3)nc2c1 | 78.42%
124 nM | 25 to 1240 nM | 96.3% | 142 nM | COCCCOc1ccnc(COc2ccc(CS(=O)(=O)c3nc4cc(OC(F)F)ccc4[nH]3)cc2OC)c1C | 96.42%
1290 nM | 25 to 1240 nM | 74.9% | 1310 nM | COc1cc(CS(=O)(=O)c2nc3ccccc3[nH]2)ccc1OCc1nccc(OCC(F)(F)F)c1C | 74.21%
198 nM | 25 to 1240 nM | 94.4% | 186 nM | COc1cc(CS(=O)(=O)c2nc3cc(OC(F)F)ccc3[nH]2)ccc1OCc1nccc(OC)c1OC | 94.11%
1680 nM | 25 to 1240 nM | 70.5% | 1820 nM | COc1cc(CS(=O)(=O)c2nc3ccccc3[nH]2)ccc1OCc1ncc(C)c(OC)c1C | 70.41%
228 nM | 25 to 1240 nM | 92% | 212 nM | COc1cc(CS(=O)(=O)c2nc3ccccc3[nH]2)ccc1OCc1nccc(OC)c1OC | 91.12%
1150 nM | 25 to 1240 nM | 76.3% | 1210 nM | COc1ccc2[nH]c(S(=O)(=O)Cc3ccc(OCc4ncc(C)c(OC)c4C)c(OC)c3)nc2c1 | 76.23%
